These results are taken from article PMC6631010, “Development of a Simple Assay Method for Adenosine Deaminase via Enzymatic Formation of an Inosine-Tb^3+ Complex” (Sensors (Basel, Switzerland), 2019).

This assay addresses T1, Adenosine deaminase (ADA) (Bos taurus, UniProt P56658).
T1 sequence (P56658 2-363): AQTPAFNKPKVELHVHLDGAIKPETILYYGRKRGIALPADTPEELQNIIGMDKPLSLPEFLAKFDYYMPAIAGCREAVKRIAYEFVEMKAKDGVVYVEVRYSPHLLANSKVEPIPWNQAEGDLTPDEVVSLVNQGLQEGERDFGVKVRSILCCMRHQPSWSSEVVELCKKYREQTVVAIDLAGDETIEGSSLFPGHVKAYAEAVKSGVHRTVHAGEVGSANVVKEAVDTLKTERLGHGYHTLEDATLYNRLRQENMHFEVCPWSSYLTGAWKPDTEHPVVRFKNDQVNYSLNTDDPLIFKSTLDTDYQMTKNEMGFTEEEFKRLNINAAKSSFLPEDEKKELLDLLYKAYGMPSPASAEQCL
Put plainly: biochemical.

For orientation: IC50 means the midpoint of a concentration-inhibition curve. Low values mean inhibition by little substance, high ones a need for much substance. Turning to `CCCCCC[C@@H]([C@@H](C)O)n1cnc2c(N)ncnc21` (racemic) [EHNA, erythro-9-(2-hydroxy-3-nonyl)adenine], the midpoint of inhibition, the IC50, lay at 64 nM.
